Tests used:
[1] = target: T1, hERG channel (Homo sapiens, UniProt Q12809); test: hERG channel inhibition, automated patch clamp (IonWorks HT, hERG-CHO); type: cell-based; conditions: CHO cells expressing hERG, 600 s incubation; for inhibition at 600 s, 1 µM: 1 μM compound, read-out: hERG Channel Inhibition % (at 1 μM), vehicle-subtracted values; for inhibition at 600 s, 10 µM: 10 μM compound, read-out: hERG Channel Inhibition % (at 10 μM), vehicle-subtracted values
T1 construct: expressed in transfected cells; host or cells: CHO (hERG-CHO), under Geneticin selection
T1 sequence (Q12809 whole entry): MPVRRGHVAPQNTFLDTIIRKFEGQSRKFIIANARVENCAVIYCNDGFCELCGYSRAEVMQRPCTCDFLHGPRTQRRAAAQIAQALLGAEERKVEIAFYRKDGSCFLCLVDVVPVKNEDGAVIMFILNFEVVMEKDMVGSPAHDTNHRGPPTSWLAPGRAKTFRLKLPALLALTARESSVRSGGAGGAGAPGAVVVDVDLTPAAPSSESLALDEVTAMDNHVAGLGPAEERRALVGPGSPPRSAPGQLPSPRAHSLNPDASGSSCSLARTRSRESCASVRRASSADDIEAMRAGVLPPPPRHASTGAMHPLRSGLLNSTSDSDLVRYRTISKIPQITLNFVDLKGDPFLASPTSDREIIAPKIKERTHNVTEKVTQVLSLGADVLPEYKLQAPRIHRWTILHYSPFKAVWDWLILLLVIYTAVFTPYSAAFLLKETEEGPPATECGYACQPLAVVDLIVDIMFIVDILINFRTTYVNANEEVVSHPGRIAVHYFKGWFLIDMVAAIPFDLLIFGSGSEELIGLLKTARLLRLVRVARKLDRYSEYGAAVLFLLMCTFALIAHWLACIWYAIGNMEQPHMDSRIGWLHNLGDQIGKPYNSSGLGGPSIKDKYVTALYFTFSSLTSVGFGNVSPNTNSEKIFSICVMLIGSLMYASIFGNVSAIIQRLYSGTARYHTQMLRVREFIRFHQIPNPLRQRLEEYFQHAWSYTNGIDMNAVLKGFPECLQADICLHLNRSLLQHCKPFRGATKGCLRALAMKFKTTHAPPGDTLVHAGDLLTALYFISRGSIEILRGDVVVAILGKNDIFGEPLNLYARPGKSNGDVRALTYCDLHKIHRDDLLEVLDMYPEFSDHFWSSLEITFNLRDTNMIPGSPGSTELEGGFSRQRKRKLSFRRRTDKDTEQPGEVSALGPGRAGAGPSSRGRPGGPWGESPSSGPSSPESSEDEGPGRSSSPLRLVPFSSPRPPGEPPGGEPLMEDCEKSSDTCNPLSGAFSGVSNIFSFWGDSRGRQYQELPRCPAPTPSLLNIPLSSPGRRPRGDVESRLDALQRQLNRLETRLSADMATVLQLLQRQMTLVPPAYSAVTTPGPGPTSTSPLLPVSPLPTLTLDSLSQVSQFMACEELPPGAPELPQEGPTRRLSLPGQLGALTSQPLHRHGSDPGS
Protocol: Human ether-a-gogo-related (hERG) ion channel encodes the inward rectifying voltage gated potassium channel in the heart and has a major role during the repolarization of the cardiac action potential. It is well established that blockade of this ion channel can lead to potentially lethal arrhythmias. hERG pre-clinical safety data is often used by regulatory agencies in elucidate the toxicity profile of certain compositions. The disclosed compounds of Table 1 were tested for their ability to inhibit hERG ion channels.
Media components include F12 Nutrient Mixture (Ham) with GlutaMAX™ (Invitrogen, Cat#31765), Fetal Bovine Serum, Certified (Invitrogen, Cat#16000-044—not heat activated), and Geneticin® Selective Antibiotic (Invitrogen, Cat#10131-027).
One vial of frozen cells, at 1.62×10^6 cells are thawed into a T150 flask (BD Falcon 355001) with 40 mL of pre-warmed complete media. Cells are cultured at 37° C., 5% CO2 for four hours prior to gently changing media. 99% of cells appear attached at this time point.
The flask is media changed at 24 hours post-thaw, the cells are imaged, media changed, and returned to the incubator. At this point, the cells appear healthy and about 25% confluent in the flask. Cells are typically passed 24-48 hours after thaw according to the following intervals and densities below. Cells are incubated at 30° C. for 48 hours prior to assay.
Using an automated patch clamp apparatus (IonWorks^HT), a three pulse protocol was applied by stepping from a holding potential of −80 mV to […] for 2 s, to activate hERG channels. The membrane voltage was then stepped back to −50 mV for 2 s to evoke a tail current prior to returning to the holding potential for 1 s. This sequence was repeated a further two times. This voltage protocol was applied prior to drug (Pre compound) and after 600 s in the presence of drug (Post compound).
The amplitude of the hERG tail current was calculated by measuring the difference between the maximum current on stepping to −50 mV of the third pulse (i.e. peak of the outward hERG tail current) and the current measured immediately prior to activation of any hERG current. This parameter was assessed before (pre tail current amplitude) and after 600 s incubation (post tail current amplitude) in drug. In order to assess the amount of block produced by test compounds, the data was first filtered using the IonWorks™ software to exclude any cells where the seal resistance was less than 50 MOhm. The remaining data was then exported to an excel compatible data file and only currents with tail currents greater than 250 pA were analyzed. The post/pre tail current amplitude ratio for the third pulse was calculated for each drug and control, and presented as percent inhibition.

[2] = Pharmacokinetic study, plasma level 2 hours after oral dosing in rats; type: in vivo
Protocol: Pharmacokinetic studies were conducted to determine absorption and distribution profiles of the disclosed compounds which were orally administered to rats.
Compounds were formulated in a 1% DMA/99% Vitamin E TPGS vehicle. Prepared compounds were dosed via oral gavage (PO). Following the appropriate pretreatment time of 2 hours, rats were anesthetized with isoflurane gas. Blood was collected into tubes containing EDTA via retro-orbital eye bleed. Whole blood was spun in a micro-centrifuge at approximately 13,000 rpm for 5 minutes at room temperature. Separated plasma was subsequently aliquoted into eppendorf tubes. Samples were stored at −80° C. until prepped for analysis.
Plasma samples were thawed and the required amount of plasma for standards, blanks and dilutions were made. The dilutions were prepared before plating. Preparation of crash solution included cold acetonitrile+0.1% formic acid and 25 ng/mL of a FAAH inhibitor used as internal standard. solvent standards of the FAAH inhibitor being studied were preparation at 10, 30, 100, 300, 1000, 3000, 10000, 30000, 100000, and 300000 ng/mL in DMSO. Then a plasma standard curve was generated from the solvent standards (final concentrations of standards in plasma were: 0.1, 0.3, 1, 3, 10, 30, 100, 300, 1000, 3000 ng/mL). 50 μL of each plasma sample/dilution, standard, or blank was transferred into 96-well plates. To each well, 200 μL of cold crash solution was added. The plate was covered and gently vortexed. The plate was centrifuged at 3500 rpm, 4° C. for 10 min. 200 μL of each supernatant was transferred into new plates. The plates were dried under nitrogen in a TurboVap at 55° C. The sample in each well was re-suspended with 100 μL of 30% acetonitrile, covered and vortexed gently. The well solutions were analyzed by the LC/MS/MS conditions and specifications below.
HPLC column was a Clipeus C8, 2.1×30 mm, 5 μm, with Basic 8 guard column using 20 μL injections. Mobile phase used was mobile phase A: 0.1% Formic Acid in water and mobile phase B: 0.1% Formic Acid in 85:10:5 ACN:IPA:H2O. The flow rate for the run was 0.5 mL/min and the gradient for the 4 minute total run time was: 0.0 minutes

[3] = target: T2, FAAH (Homo sapiens, UniProt O00519); test: FAAH inhibition, human brain membrane homogenate assay; type: biochemical; conditions: human brain homogenate; average activity; read-out: Human brain Extract FAAH IC50
T2 construct: Reactions were initiated by adding 12.5 μg of brain microsome; tissue ABS, Inc; host or cells: human brain cerebral cortex, membrane/microsome fraction pooled from 3 donors
T2 sequence (O00519 1-579): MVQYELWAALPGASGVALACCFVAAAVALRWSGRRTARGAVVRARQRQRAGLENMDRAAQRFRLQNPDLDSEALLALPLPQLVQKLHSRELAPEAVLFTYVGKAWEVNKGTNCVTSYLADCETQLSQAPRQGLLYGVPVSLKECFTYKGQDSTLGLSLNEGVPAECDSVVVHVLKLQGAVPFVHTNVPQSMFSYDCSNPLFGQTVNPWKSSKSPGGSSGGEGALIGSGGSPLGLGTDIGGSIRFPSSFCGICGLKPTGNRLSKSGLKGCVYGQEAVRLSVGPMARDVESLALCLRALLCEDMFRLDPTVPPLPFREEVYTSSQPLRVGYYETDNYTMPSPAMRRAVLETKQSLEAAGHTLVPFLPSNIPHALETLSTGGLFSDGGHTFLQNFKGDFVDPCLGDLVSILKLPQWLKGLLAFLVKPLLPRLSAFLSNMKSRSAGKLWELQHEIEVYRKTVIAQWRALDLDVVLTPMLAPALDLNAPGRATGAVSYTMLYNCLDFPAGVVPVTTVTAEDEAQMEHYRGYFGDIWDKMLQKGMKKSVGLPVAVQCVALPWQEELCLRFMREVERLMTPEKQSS

Structure (SMILES)	inhibition at 600 s, 1 µM [1] [%]	inhibition at 600 s, 10 µM [1] [%]	2 hr plasma level-ng/mL (rat, 10 mg/kg PO, 2 hr) [2]	IC50 [3] [nM]
COc1cc(NC(=O)C(=O)c2c(C)n(Cc3ccc(F)cc3F)c3cc(F)c(OC)cc23)ccn1 [Compound 14, 2-(1-(2,4-difluorobenzyl)-6-fluoro-5-methoxy-2-methyl-1H-indol-3-yl)-N-(2-methoxypyridin-4-yl)-2-oxoacetamide]	< 25	< 25	D (D = greater than 1000 nM)	< 100
COc1cc(NC(=O)C(=O)c2c(C)n(Cc3ccc(Cl)cc3)c3ccc(C#N)cc23)ccn1 [Compound 15, 2-(1-(4-chlorobenzyl)-5-cyano-2-methyl-1H-indol-3-yl)-N-(2-methoxypyridin-4-yl)-2-oxoacetamide]	< 25	50 to 75	D (D = greater than 1000 nM)	< 100
COc1cc(NC(=O)C(=O)c2c(C)n(Cc3ccc(Cl)cc3)c3ccc(N(C)C)cc23)ccn1 [Compound 17, 2-(1-(4-chlorobenzyl)-5-(dimethylamino)-2-methyl-1H-indol-3-yl)-N-(2-methoxypyridin-4-yl)-2-oxoacetamide]	< 25	< 25	C (C = between 100 nM and 1000 nM)	< 100
COc1cc(NC(=O)C(=O)c2c(C)n(Cc3ccc(Cl)cc3)c3ccc(Br)cc23)ccn1 [Compound 18, 2-(5-bromo-1-(4-chlorobenzyl)-2-methyl-1H-indol-3-yl)-N-(2-methoxypyridin-4-yl)-2-oxoacetamide]	< 25	< 25	D (D = greater than 1000 nM)	< 100
COc1cc(NC(=O)C(=O)c2c(C)n(Cc3ccc(Cl)cc3)c3ccc([N+](=O)[O-])cc23)ccn1 [Compound 19, 2-(1-(4-chlorobenzyl)-2-methyl-5-nitro-1H-indol-3-yl)-N-(2-methoxypyridin-4-yl)-2-oxoacetamide]	< 25	25 to 50	C (C = between 100 nM and 1000 nM)	< 100
COc1cc(NC(=O)C(=O)c2c(C)n(Cc3ccc(Cl)cc3)c3ccc(N)cc23)ccn1 [Compound 20, 2-(5-amino-1-(4-chlorobenzyl)-2-methyl-1H-indol-3-yl)-N-(2-methoxypyridin-4-yl)-2-oxoacetamide]	< 25	< 25	C (C = between 100 nM and 1000 nM)	< 100
COc1cc(NC(=O)C(=O)c2c(C)n(Cc3ccc(Cl)cc3)c3ccc(C(F)(F)F)cc23)ccn1 [Compound 21, 2-(1-(4-chlorobenzyl)-2-methyl-5-(trifluoromethyl)-1H-indol-3-yl)-N-(2-methoxypyridin-4-yl)-2-oxoacetamide]	< 25	25 to 50	C (C = between 100 nM and 1000 nM)	< 100
COc1cc(NC(=O)C(=O)c2c(C)n(Cc3ccc(Cl)cc3)c3ccc(NC(C)=O)cc23)ccn1 [Compound 22, 2-(5-acetamido-1-(4-chlorobenzyl)-2-methyl-1H-indol-3-yl)-N-(2-methoxypyridin-4-yl)-2-oxoacetamide]	< 25	< 25	B (B = between 10 nM and 100 nM)	< 100
COc1cc(NC(=O)C(=O)c2c(C)n(Cc3ccc(Cl)cc3)c3ccc(OC(F)(F)F)cc23)ccn1 [Compound 23, 2-(1-(4-chlorobenzyl)-2-methyl-5-(trifluoromethoxy)-1H-indol-3-yl)-N-(2-methoxypyridin-4-yl)-2-oxoacetamide]	< 25	50 to 75	C (C = between 100 nM and 1000 nM)	< 100

— patent US20150175599A1, “FAAH Inhibitors” (Ironwood Pharmaceuticals, Inc., priority 2010, published 2015)
